Data set [1] has as its system 5-HT6 receptors. The conditions noted are these: PET.
Experimental: Yorkshire/Danish Landrace porcines (- 40 Kg; n=4) were housed singly in thermostatically controlled (20 °C) and naturally illuminated stalls. The pigs were provided with Soavl® chow (DLG, Denmark) and water ad libitum by trough. Animals were fasted for 24 hours prior to PET examination, with free access to water during this interval. Animals were anaesthetised by induction with ketamine and midazolam (both intramuscular and intravenous (i.v.)) and maintained in deep anaesthesia using isoflurane (1 - 2 %; Abbott, Denmark). The left femoral artery and vein of each animal were surgically cannulated using catheters (Avanti® size 4F-7F). The femoral artery for blood sampling and blood pressure (BP) recordings and the femoral vein for administration of radiolabelled and non-labelled agents. Animals were placed supine in a Siemens ECAT EXACT HR tomograph, with the head immobilised in a custom-made holding device. During the study, blood pH, pCO2 and pO2 levels were monitored and maintained within the normal physiological range. In addition, BP and heart rate were recorded throughout the study. At the end of each study day, the animal was terminated via an intravenous dose of sodium pentobarbital (20 ml). […] PET scanning and arterial blood sampling was commenced upon start of the radioligand administration.
The subject of data set [2] is 5-HT6 receptors. Briefly: PET imaging, saturation of 5-HT6 receptors in the brain.
Experimental: Yorkshire/Danish Landrace porcines (- 40 Kg; n=4) were housed singly in thermostatically controlled (20 °C) and naturally illuminated stalls. The pigs were provided with Soavl® chow (DLG, Denmark) and water ad libitum by trough. Animals were fasted for 24 hours prior to PET examination, with free access to water during this interval. Animals were anaesthetised by induction with ketamine and midazolam (both intramuscular and intravenous (i.v.)) and maintained in deep anaesthesia using isoflurane (1 - 2 %; Abbott, Denmark). The left femoral artery and vein of each animal were surgically cannulated using catheters (Avanti® size 4F-7F). The femoral artery for blood sampling and blood pressure (BP) recordings and the femoral vein for administration of radiolabelled and non-labelled agents. Animals were placed supine in a Siemens ECAT EXACT HR tomograph, with the head immobilised in a custom-made holding device. During the study, blood pH, pCO2 and pO2 levels were monitored and maintained within the normal physiological range. In addition, BP and heart rate were recorded throughout the study. At the end of each study day, the animal was terminated via an intravenous dose of sodium pentobarbital (20 ml). [^11C]GSK215083 was administered intravenously in the femoral vein as a 1 minute bolus injection. PET scanning and arterial blood sampling was commenced upon start of the radioligand administration.
Four sequential high specific activity iv radioligand ([^11C]GSK215083) administrations were performed in same animal, same day. Following a baseline scan, [^11C] GSK215083 was coadministered with escalating dose of unlabelled GSK215083 (0.005, 0.05 and 0.5mg/kg). [^15O]CO and [^15O]H2O were administered pre and post administration of GSK215083 to monitor and to correct for changes in cerebral blood volume and changes in cerebral blood flow.
Data set [3] concerns the target T1, human recombinant 5-HT6 receptor (Homo sapiens, UniProt P50406).
T1 construct: expressed in transfected cells; host or cells: HeLa
Briefly: Radioligand binding, competition studies with [^3H]LSD. From the text:
(§1) Table 1. Binding Profile (pKi values) of GSK215083

In another data set the target is T2, 5-HT1A (Homo sapiens, UniProt P08908).
T2 sequence (P08908 1-422): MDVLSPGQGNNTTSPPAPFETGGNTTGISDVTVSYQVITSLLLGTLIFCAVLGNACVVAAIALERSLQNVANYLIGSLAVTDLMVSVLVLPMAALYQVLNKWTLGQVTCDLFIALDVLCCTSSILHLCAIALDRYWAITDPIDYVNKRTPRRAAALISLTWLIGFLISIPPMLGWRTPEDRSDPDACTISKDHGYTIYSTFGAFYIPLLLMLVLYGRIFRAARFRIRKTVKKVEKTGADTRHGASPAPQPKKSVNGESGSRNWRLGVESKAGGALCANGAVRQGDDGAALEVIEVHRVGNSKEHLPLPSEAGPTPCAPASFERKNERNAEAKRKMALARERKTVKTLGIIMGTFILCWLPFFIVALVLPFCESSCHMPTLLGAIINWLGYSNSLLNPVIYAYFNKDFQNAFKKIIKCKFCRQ
Briefly: Binding profile.
Source text: as §1

In the next data set the target is 5-HT1B (Homo sapiens, UniProt P28222). Briefly: Binding profile.
5-HT1B, sequence (P28222 whole entry, species assumed): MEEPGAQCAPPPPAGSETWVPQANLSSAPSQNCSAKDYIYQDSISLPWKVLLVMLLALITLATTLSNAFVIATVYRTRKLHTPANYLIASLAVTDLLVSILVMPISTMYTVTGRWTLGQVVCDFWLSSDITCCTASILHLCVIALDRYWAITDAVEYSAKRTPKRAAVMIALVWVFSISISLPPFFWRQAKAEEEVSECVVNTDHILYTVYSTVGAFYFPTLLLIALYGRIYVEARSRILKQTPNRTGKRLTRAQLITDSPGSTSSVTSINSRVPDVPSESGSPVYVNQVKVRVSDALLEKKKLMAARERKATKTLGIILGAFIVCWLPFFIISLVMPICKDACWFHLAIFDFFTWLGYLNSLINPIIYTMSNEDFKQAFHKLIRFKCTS
Source text: as §1

Another data set concerns the target 5-HT1D (Homo sapiens, UniProt P28221). Briefly: Binding profile.
Source text: as §1

Another data set deals with 5-HT2B (Homo sapiens, UniProt P41595). Briefly: Binding profile.
5-HT2B, sequence (P41595 whole entry, species assumed): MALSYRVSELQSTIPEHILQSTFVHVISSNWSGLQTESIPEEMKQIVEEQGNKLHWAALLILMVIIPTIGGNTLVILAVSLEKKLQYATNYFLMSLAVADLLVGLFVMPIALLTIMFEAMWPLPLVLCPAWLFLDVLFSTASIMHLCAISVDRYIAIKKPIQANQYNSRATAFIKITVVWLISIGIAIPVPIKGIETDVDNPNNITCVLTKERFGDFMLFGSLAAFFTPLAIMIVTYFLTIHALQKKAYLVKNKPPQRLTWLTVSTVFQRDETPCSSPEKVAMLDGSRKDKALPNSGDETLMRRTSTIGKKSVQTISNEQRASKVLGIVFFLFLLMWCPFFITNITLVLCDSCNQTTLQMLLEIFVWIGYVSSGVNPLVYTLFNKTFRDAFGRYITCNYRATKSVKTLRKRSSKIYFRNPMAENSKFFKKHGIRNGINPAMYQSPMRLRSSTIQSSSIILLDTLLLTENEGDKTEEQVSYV
Source text: as §1

The target of another data set is T3, 5-HT2C (Homo sapiens, UniProt P28335).
T3 sequence (P28335 33-458): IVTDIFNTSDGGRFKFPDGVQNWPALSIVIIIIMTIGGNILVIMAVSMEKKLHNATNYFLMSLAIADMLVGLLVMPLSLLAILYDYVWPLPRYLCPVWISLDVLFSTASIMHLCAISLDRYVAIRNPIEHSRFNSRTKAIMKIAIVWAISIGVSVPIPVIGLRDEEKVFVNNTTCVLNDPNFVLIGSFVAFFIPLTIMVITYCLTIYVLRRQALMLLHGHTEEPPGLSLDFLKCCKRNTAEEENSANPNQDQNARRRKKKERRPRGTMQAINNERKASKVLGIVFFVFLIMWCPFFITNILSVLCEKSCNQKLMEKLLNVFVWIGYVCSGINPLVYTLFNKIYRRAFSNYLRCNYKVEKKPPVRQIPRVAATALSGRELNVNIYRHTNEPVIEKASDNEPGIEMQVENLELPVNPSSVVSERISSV
Briefly: Binding profile.
Source text: as §1

Another data set deals with 5-HT7 (Homo sapiens, UniProt P34969). Briefly: Binding profile.
5-HT7, sequence (P34969 whole entry, species assumed): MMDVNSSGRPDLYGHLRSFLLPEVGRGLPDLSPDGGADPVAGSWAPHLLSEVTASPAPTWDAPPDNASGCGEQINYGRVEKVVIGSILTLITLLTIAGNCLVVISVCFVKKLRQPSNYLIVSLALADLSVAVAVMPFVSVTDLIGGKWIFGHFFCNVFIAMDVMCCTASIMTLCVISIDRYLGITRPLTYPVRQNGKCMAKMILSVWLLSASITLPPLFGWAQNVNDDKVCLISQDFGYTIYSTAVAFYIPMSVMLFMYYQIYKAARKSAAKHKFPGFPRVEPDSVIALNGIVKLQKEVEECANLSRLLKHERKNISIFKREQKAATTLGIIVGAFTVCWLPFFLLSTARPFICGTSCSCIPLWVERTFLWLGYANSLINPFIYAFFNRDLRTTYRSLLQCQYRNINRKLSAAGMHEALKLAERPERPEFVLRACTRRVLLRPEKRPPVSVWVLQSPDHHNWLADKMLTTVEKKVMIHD
Source text: as §1

The target in a further data set is Dopamine D2 (Homo sapiens, UniProt P14416). Briefly: Binding profile.
Dopamine D2, sequence (P14416 whole entry): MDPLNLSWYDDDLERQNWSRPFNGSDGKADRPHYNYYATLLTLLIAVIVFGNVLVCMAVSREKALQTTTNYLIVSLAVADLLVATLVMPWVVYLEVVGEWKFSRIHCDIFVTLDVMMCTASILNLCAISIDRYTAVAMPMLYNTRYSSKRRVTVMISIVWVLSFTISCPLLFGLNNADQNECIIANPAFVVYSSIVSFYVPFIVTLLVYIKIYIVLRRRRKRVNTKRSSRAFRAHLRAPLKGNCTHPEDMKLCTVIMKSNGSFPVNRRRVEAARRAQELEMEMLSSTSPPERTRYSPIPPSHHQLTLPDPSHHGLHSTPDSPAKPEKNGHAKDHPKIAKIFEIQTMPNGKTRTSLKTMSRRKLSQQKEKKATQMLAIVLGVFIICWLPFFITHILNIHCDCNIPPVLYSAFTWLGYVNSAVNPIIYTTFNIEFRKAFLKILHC
Source text: as §1

The next data set addresses Dopamine D3 (Homo sapiens, UniProt P35462). Briefly: Binding profile.
Source text: as §1

Another data set addresses T4, α1B adrenoreceptor (Homo sapiens, UniProt P35368).
T4 sequence (P35368 1-520): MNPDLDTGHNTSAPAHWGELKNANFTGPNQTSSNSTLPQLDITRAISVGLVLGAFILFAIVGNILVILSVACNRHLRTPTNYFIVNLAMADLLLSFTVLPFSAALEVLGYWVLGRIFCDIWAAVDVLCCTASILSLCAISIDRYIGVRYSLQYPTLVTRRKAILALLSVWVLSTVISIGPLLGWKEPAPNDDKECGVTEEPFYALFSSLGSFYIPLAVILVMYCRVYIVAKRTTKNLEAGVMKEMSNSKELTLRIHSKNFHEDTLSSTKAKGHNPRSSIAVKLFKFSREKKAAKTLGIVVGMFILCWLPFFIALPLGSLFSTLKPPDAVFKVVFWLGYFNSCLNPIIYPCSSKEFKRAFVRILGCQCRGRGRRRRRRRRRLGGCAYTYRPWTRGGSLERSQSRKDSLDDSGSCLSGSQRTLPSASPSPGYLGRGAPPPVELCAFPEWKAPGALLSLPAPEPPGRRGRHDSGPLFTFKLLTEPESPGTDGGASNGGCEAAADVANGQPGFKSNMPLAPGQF
Briefly: Binding profile.
Source text: as §1

In another data set the target is 5-HT2A (Homo sapiens, UniProt P28223). Briefly: Binding profile.
5-HT2A, sequence (P28223 whole entry, species assumed): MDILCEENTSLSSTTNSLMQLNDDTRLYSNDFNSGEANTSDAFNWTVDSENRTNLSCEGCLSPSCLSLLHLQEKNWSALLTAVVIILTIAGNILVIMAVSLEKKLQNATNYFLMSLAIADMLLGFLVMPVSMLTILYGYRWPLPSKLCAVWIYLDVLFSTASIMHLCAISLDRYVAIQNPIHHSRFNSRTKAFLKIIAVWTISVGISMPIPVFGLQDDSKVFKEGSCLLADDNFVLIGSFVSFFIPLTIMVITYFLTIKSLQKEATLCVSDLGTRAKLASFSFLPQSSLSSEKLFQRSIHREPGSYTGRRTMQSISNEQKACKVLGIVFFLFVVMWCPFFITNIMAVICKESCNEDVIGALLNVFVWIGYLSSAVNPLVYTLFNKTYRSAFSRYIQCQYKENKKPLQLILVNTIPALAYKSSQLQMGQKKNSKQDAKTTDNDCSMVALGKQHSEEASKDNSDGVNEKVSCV
Setting [4] is: baseline scan, 60 min post injection of [^11C]GSK215083.
Where [5] appears, read: 60min post administration of 0.5mg/kg GSK215083 with [^11C]GSK215083.
The mark [6] stands for this setting: 60 min post coinjection of [^11C]GSK215083 with 0.005mg/kg of GSK215083.
Where [7] appears, read: [^11C]GSK215083 coadministered with 0.05mg/kg of GSK215083.

By Ki is commonly meant a measure of affinity in units of concentration, obtained from inhibition or displacement.

T1 sequence (P50406 whole entry): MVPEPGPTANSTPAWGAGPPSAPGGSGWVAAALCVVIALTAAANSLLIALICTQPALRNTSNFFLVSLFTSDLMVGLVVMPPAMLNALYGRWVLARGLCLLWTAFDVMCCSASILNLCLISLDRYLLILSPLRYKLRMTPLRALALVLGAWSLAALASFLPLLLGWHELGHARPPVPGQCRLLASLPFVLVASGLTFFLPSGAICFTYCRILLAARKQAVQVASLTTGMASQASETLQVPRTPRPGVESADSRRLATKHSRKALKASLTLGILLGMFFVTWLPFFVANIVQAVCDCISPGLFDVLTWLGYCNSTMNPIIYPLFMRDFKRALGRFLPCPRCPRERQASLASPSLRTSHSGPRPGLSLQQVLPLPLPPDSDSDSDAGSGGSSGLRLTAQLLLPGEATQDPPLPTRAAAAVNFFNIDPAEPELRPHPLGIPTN
5-HT1D, sequence (P28221 whole entry, species assumed): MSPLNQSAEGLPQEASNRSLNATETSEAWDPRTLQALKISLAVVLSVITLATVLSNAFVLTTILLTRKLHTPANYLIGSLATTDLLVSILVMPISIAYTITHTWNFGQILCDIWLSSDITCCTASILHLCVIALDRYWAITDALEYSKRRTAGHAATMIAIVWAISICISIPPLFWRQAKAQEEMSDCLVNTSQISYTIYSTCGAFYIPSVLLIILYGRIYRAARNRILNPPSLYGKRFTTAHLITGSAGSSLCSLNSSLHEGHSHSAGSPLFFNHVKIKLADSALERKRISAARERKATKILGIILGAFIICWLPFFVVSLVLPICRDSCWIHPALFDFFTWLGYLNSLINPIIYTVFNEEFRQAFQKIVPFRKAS
Dopamine D3, sequence (P35462 whole entry): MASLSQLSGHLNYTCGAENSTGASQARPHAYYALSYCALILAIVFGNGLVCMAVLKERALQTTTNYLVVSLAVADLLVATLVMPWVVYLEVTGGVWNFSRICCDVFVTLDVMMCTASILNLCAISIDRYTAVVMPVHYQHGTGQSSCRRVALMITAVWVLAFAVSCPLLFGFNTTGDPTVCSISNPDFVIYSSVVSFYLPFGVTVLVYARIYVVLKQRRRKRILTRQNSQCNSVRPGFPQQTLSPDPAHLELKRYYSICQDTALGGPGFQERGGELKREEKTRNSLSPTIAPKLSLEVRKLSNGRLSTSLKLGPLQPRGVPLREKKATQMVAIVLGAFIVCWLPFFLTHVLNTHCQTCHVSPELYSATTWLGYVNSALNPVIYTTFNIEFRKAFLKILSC

Turning to `[11CH3]N1CCN(c2cccc3cc(S(=O)(=O)c4cccc(F)c4)cnc23)CC1` [[^11C]GSK215083, [^11C-N-methyl]-3-(3-Fluoro-benzenesulfonyl)-8-(4-methyl-piperazin-1-yl)-quinoline], in the data set with 5-HT6 receptors [1] (pig brain), the concentration in cerebellum entry is on record as “low” and the “rank order of regional brain concentrations” value is listed as “striatum>cortical regions>cerebellum”. Also, the “time of peak regional tissue concentrations post injection” value in the data set with 5-HT6 receptors [1] (pig brain, intravenous 1 minute bolus) is on record as “approximately 20 min”. For the same molecule, the brain entry result in the data set on 5-HT6 receptors [1] (pig, intravenous 1 minute bolus) is listed as “readily enters the brain”. For the same molecule, in the data set on 5-HT6 receptors [2] (setting [4]), the “cortex to cerebellum ratio” value was in the range of 1.5 to 1 and the “striatum to cerebellum ratio” value is 2 to 1.
As to `CN1CCN(c2cccc3cc(S(=O)(=O)c4cccc(F)c4)cnc23)CC1` [GSK215083, 3-[(3-fluorophenyl)sulfonyl]-8-(4-methyl-1-piperazinyl)quinoline], the inhibition constant Ki in data set [3] (human recombinant 5-HT6 receptor stably expressed in the HeLa cell line, [^3H]LSD as radioligand) was 0.151 nM; at 5-HT1A, greater than 7.08 µM; at 5-HT1B, 105 nM; on 5-HT1D, 69.2 nM; at 5-HT2B it was 9.12 nM; at 5-HT2C it was 17.8 nM. Also, the inhibitory constant (Ki) was greater than 10 µM at 5-HT7; 912 nM on Dopamine D2; 977 nM on Dopamine D3; 977 nM on α1B adrenoreceptor; 0.724 nM on 5-HT2A. The “selectivity for the human 5-HT6 receptor” value in data set [3] (over other receptors screened to date) is given as “selective for the human 5-HT6 receptor over other receptors screened to date”. Also, the results for the “cortex to cerebellum ratio” value with 5-HT6 receptors [2] (setting [5]), with 5-HT6 receptors [2] (setting [6]) and in the data set with 5-HT6 receptors [2] (setting [7]) were 1 to 1, 1.2 to 1 and 1.1 to 1, respectively. Besides, the “striatum to cerebellum ratio” value fell in the range of 1.1 to 1 in the data set on 5-HT6 receptors [2] (setting [5]), 1.5 to 1 in the data set with 5-HT6 receptors [2] (setting [6]) and 1.3 to 1 in the data set with 5-HT6 receptors [2] (setting [7]).

(Values after patent EP1824830B1, “RADIOLABELLED QUINOLINE-BASED LIGANDS FOR THE 5-HT6 RECEPTOR FUNCTIONALITY” (GLAXO GROUP LIMITED, priority 2004, dated 2006).)
